# Publication PMC11040118 (Heliyon, 2024)
# Read-outs that look alike come from different tables or passages of the source.
# Target: T1, Thyroperoxidase (TPO) (Rattus norvegicus, UniProt P14650)
# T1 sequence (P14650 32-914): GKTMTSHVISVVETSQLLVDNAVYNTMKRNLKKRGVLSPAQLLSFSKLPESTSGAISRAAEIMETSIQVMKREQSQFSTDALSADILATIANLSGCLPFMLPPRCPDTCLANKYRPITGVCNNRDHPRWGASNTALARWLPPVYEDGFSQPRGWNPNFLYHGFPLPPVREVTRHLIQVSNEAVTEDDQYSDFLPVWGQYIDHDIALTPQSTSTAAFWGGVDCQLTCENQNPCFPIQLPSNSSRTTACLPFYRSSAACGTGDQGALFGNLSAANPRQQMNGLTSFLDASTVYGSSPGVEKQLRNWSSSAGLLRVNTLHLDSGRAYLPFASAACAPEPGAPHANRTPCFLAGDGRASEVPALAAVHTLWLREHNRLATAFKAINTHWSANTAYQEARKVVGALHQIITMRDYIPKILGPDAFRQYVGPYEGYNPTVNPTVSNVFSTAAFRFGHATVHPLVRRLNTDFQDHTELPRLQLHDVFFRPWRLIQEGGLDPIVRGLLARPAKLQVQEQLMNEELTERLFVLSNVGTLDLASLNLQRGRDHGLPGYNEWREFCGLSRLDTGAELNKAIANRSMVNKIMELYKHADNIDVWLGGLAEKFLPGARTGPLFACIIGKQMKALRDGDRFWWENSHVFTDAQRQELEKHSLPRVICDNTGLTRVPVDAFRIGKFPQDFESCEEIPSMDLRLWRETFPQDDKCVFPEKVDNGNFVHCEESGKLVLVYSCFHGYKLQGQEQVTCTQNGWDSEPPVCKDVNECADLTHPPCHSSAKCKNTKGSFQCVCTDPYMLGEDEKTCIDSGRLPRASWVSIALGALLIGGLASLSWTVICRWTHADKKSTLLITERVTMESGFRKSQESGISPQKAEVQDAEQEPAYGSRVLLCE
# Type: biochemical
# [1] = AVG IC50 ± SD, L-Tyr to MIT, rat thyroid microsomes, mean of N = 3 ± SD
# [2] = Actual pIC50, in vitro value repeated in Table 2 for comparison with the models
# [3] = Log10 Value of AVG IC50, L-Tyr to MIT, from average IC50, Table 1
SMILES,"Log10 Value of AVG IC50, L-Tyr to MIT (from average IC50, Table 1)",Actual pIC50 (in vitro value repeated in Table 2 for comparison with the models),IC50 [1],IC50 [2],IC50 [3]
O=C(O[C@@H]1Cc2c(O)cc(O)cc2O[C@@H]1c1cc(O)c(O)c(O)c1)c1cc(O)c(O)c(O)c1 [Epigallocatechin gallate],6.48,6.48,–,–,–
"O=c1c(O)c(-c2ccc(O)cc2)oc2cc(O)cc(O)c12 [Kaemferol, Kaempferol]",–,–,4930 ± 1970 nM,5010 nM,5010 nM
COc1cc(/C=C/C(=O)CC(=O)/C=C/c2ccc(O)c(OC)c2)ccc1O [Curcumin],–,–,1810 ± 430 nM,1820 nM,–
O=C(O)c1cc(O)c(O)c(O)c1 [Gallic acid hydrate],–,–,790 ± 340 nM,813 nM,813 nM
"COc1cc(CCC(=O)CC(=O)CCc2ccc(O)c(OC)c2)ccc1O [Tetrahydro curcumin, Tetrahydrocurcumin]",–,–,1510 ± 170 nM,1550 nM,1550 nM
NC(=S)Nc1ccccc1 [Phenylthiourea],–,–,2730 ± 690 nM,2750 nM,–

# The next lines start with the values.
"Log10 Value of AVG IC50, L-Tyr to MIT (from average IC50, Table 1)",Actual pIC50 (in vitro value repeated in Table 2 for comparison with the models),IC50 [1],IC50 [2],IC50 [3],SMILES
–,–,8760 ± 1360 nM,8910 nM,8910 nM,"Oc1ccc(OCc2ccccc2)cc1 [4-Benzyloxy phenol, 4-Benzyloxyphenol]"
–,–,710 ± 50 nM,724 nM,–,"Oc1ccc(/C=C/c2cc(O)cc(O)c2)cc1 [Reservatrol, Resveratrol]"
–,–,7770 ± 2710 nM,7940 nM,7940 nM,CC[C@H](c1ccc(O)cc1)[C@@H](CC)c1ccc(O)cc1 [Hexestrol]
